Active and inactive are the calls of the source. How the calls were made is not given here.
Test system: CCRIS mutagenicity, Ames/micronucleus/aberration tests
Test: CCRIS mutagenicity studies
[1] = Test System: AMES SALMONELLA TYPHIMURIUM, Strain/Indicator: TA98, Metabolic Activation: NONE, Method: PREINCUBATION
[2] = Test System: AMES SALMONELLA TYPHIMURIUM, Strain/Indicator: TA98, Metabolic Activation: NONE, Method: STANDARD PLATE
[3] = Test System: AMES SALMONELLA TYPHIMURIUM, Strain/Indicator: TA100, Metabolic Activation: NONE, Method: PREINCUBATION
[4] = Test System: AMES SALMONELLA TYPHIMURIUM, Strain/Indicator: TA100, Metabolic Activation: NONE, Method: STANDARD PLATE
[5] = Test System: AMES SALMONELLA TYPHIMURIUM, Strain/Indicator: TA1535, Metabolic Activation: NONE, Method: PREINCUBATION
[6] = Test System: AMES SALMONELLA TYPHIMURIUM, Strain/Indicator: TA1537, Metabolic Activation: NONE, Method: PREINCUBATION

SMILES: COc1cc(/C=C/C(=O)CC(=O)/C=C/c2ccc(O)c(OC)c2)ccc1O
- mutagenic call (End Point: IN VITRO CHROMOSOMAL ABERRATIONS, Test System: CHO CELLS, Metabolic Activation: NONE): active; positive (structural changes); presence of iron significantly decreased number o
- mutagenic call (End Point: IN VITRO CHROMOSOMAL ABERRATIONS, Test System: CHO-9 CELLS, Metabolic Activation: NONE): active; positive (structural changes)
- mutagenic call (End Point: IN VIVO CHROMOSOMAL ABERRATIONS, Test System: BONE MARROW CELLS, Species: RAT, Strain/Sex: WISTAR/MALE, Route: GAVAGE): inactive; negative; curcumin reduced mutagenic effect of cyclophosphamide
- mutagenic call (End Point: In vitro chromosomal aberrations, Test System: Chinese hamster ovary (CHO-9) cells, Metabolic Activation: None): active; positive (structural changes)
- mutagenic call (End Point: In vitro micronucleus, Test System: Human lymphocytes, Metabolic Activation: None): inactive; negative
- mutagenic call (Test System: AMES SALMONELLA TYPHIMURIUM, Strain/Indicator: TA98, Metabolic Activation: HAMSTER, LIVER, S-9, AROCLOR 1254 (10%), Method: PREINCUBATION): inactive; negative
- mutagenic call (Test System: AMES SALMONELLA TYPHIMURIUM, Strain/Indicator: TA98, Metabolic Activation: HAMSTER, LIVER, S-9, AROCLOR 1254, Method: STANDARD PLATE): inactive; negative
- mutagenic call [1]: inactive; negative
- mutagenic call [2]: inactive; negative
- mutagenic call (Test System: AMES SALMONELLA TYPHIMURIUM, Strain/Indicator: TA98, Metabolic Activation: RAT, LIVER, S-9, AROCLOR 1254 (10%), Method: PREINCUBATION): inactive; negative
- mutagenic call (Test System: AMES SALMONELLA TYPHIMURIUM, Strain/Indicator: TA98, Metabolic Activation: RAT, LIVER, S-9, AROCLOR 1254, Method: STANDARD PLATE): inactive; negative
- mutagenic call (Test System: AMES SALMONELLA TYPHIMURIUM, Strain/Indicator: TA100, Metabolic Activation: HAMSTER, LIVER, S-9, AROCLOR 1254 (10%), Method: PREINCUBATION): inactive; negative
- mutagenic call (Test System: AMES SALMONELLA TYPHIMURIUM, Strain/Indicator: TA100, Metabolic Activation: HAMSTER, LIVER, S-9, AROCLOR 1254, Method: STANDARD PLATE): inactive; negative
- mutagenic call [3]: inactive; negative
- mutagenic call [4]: inactive; negative
- mutagenic call (Test System: AMES SALMONELLA TYPHIMURIUM, Strain/Indicator: TA100, Metabolic Activation: RAT, LIVER, S-9, AROCLOR 1254 (10%), Method: PREINCUBATION): inactive; negative
- mutagenic call (Test System: AMES SALMONELLA TYPHIMURIUM, Strain/Indicator: TA100, Metabolic Activation: RAT, LIVER, S-9, AROCLOR 1254, Method: STANDARD PLATE): inactive; negative
- mutagenic call (Test System: AMES SALMONELLA TYPHIMURIUM, Strain/Indicator: TA1535, Metabolic Activation: HAMSTER, LIVER, S-9, AROCLOR 1254 (10%), Method: PREINCUBATION): inactive; negative
- mutagenic call (Test System: AMES SALMONELLA TYPHIMURIUM, Strain/Indicator: TA1535, Metabolic Activation: HAMSTER, LIVER, S-9, AROCLOR 1254, Method: STANDARD PLATE): inactive; negative
- mutagenic call [5]: inactive; negative
- mutagenic call (Test System: AMES SALMONELLA TYPHIMURIUM, Strain/Indicator: TA1535, Metabolic Activation: NONE, Method: STANDARD PLATE): inactive; negative
- mutagenic call (Test System: AMES SALMONELLA TYPHIMURIUM, Strain/Indicator: TA1535, Metabolic Activation: RAT, LIVER, S-9, AROCLOR 1254 (10%), Method: PREINCUBATION): inactive; negative
- mutagenic call (Test System: AMES SALMONELLA TYPHIMURIUM, Strain/Indicator: TA1535, Metabolic Activation: RAT, LIVER, S-9, AROCLOR 1254, Method: STANDARD PLATE): inactive; negative
- mutagenic call (Test System: AMES SALMONELLA TYPHIMURIUM, Strain/Indicator: TA1537, Metabolic Activation: HAMSTER, LIVER, S-9, AROCLOR 1254 (10%), Method: PREINCUBATION): inactive; negative
- mutagenic call (Test System: AMES SALMONELLA TYPHIMURIUM, Strain/Indicator: TA1537, Metabolic Activation: HAMSTER, LIVER, S-9, AROCLOR 1254, Method: STANDARD PLATE): inactive; negative
- mutagenic call [6]: inactive; negative
- mutagenic call (Test System: AMES SALMONELLA TYPHIMURIUM, Strain/Indicator: TA1537, Metabolic Activation: NONE, Method: STANDARD PLATE): inactive; negative
- mutagenic call (Test System: AMES SALMONELLA TYPHIMURIUM, Strain/Indicator: TA1537, Metabolic Activation: RAT, LIVER, S-9, AROCLOR 1254 (10%), Method: PREINCUBATION): inactive; negative
- mutagenic call (Test System: AMES SALMONELLA TYPHIMURIUM, Strain/Indicator: TA1537, Metabolic Activation: RAT, LIVER, S-9, AROCLOR 1254, Method: STANDARD PLATE): inactive; negative
- mutagenic call (Test System: AMES SALMONELLA TYPHIMURIUM, Strain/Indicator: TA1538, Metabolic Activation: HAMSTER, LIVER, S-9, AROCLOR 1254, Method: STANDARD PLATE): inactive; negative
- mutagenic call (Test System: AMES SALMONELLA TYPHIMURIUM, Strain/Indicator: TA1538, Metabolic Activation: NONE, Method: STANDARD PLATE): inactive; negative
- mutagenic call (Test System: AMES SALMONELLA TYPHIMURIUM, Strain/Indicator: TA1538, Metabolic Activation: RAT, LIVER, S-9, AROCLOR 1254, Method: STANDARD PLATE): inactive; negative

SMILES: COc1cccc([N+](=O)[O-])c1
- mutagenic call [1]: inactive; negative
- mutagenic call (Test System: AMES SALMONELLA TYPHIMURIUM, Strain/Indicator: TA98, Metabolic Activation: RAT, LIVER, S-9, KANECHLOR 500, Method: PREINCUBATION): inactive; negative
- mutagenic call (Test System: AMES SALMONELLA TYPHIMURIUM, Strain/Indicator: TA98, Method: PREINCUBATION): inactive; negative
- mutagenic call [3]: inactive; negative
- mutagenic call (Test System: AMES SALMONELLA TYPHIMURIUM, Strain/Indicator: TA100, Metabolic Activation: RAT, LIVER, S-9, KANECHLOR 500, Method: PREINCUBATION): inactive; negative
- mutagenic call (Test System: AMES SALMONELLA TYPHIMURIUM, Strain/Indicator: TA100, Method: PREINCUBATION): inactive; negative
- mutagenic call [5]: inactive; negative
- mutagenic call (Test System: AMES SALMONELLA TYPHIMURIUM, Strain/Indicator: TA1535, Method: PREINCUBATION): inactive; negative
- mutagenic call [6]: inactive; negative
- mutagenic call (Test System: AMES SALMONELLA TYPHIMURIUM, Strain/Indicator: TA1537, Method: PREINCUBATION): inactive; negative
- mutagenic call (Test System: AMES SALMONELLA TYPHIMURIUM, Strain/Indicator: TA1538, Metabolic Activation: NONE, Method: PREINCUBATION): inactive; negative
- mutagenic call (Test System: AMES SALMONELLA TYPHIMURIUM, Strain/Indicator: TA1538, Method: PREINCUBATION): inactive; negative

SMILES: COC1=CC(=O)c2c(nc(C)c3c2[nH]c2ccncc23)C1=O
- mutagenic call (Test System: AMES SALMONELLA TYPHIMURIUM, Strain/Indicator: TA97A, Metabolic Activation: NONE, Method: STANDARD PLATE): active; positive
- mutagenic call (Test System: AMES SALMONELLA TYPHIMURIUM, Strain/Indicator: TA97A, Metabolic Activation: RAT LIVER S-9, AROCLOR 1254, Method: STANDARD PLATE): inactive; negative
- mutagenic call [2]: active; positive
- mutagenic call (Test System: AMES SALMONELLA TYPHIMURIUM, Strain/Indicator: TA98, Metabolic Activation: RAT LIVER S-9, AROCLOR 1254, Method: STANDARD PLATE): active; positive
- mutagenic call [4]: active; positive
- mutagenic call (Test System: AMES SALMONELLA TYPHIMURIUM, Strain/Indicator: TA100, Metabolic Activation: RAT LIVER S-9, AROCLOR 1254, Method: STANDARD PLATE): active; positive
- mutagenic call (Test System: AMES SALMONELLA TYPHIMURIUM, Strain/Indicator: TA102, Metabolic Activation: NONE, Method: STANDARD PLATE): active; positive
- mutagenic call (Test System: AMES SALMONELLA TYPHIMURIUM, Strain/Indicator: TA102, Metabolic Activation: RAT LIVER S-9, AROCLOR 1254, Method: STANDARD PLATE): active; positive

Reference: PubChem BioAssay AID1259407 (Chemical Carcinogenesis Research Information System (CCRIS), 2018)
